The test relates to anti-1-NAP monoclonal antibody (mAb). The test is described as follows: ciELISA with the obtained mAb under optimized conditions. The conditions noted are these: for CR (cross-reactivity): CR (%) = [IC50 (NAP)/IC50 (cross-reactant)] × 100, n=3; for IC50: Table 2, optimized condition, n=3. The class given is binding, mouse.

The results in this text go back to PMC7200204 (Ecotoxicology and environmental safety, 2020).

One may read the IC50 as the concentration at which inhibition is half-maximal. Read a low IC50 as greater potency in that assay.

The structures appear in SMILES notation. In brackets after ≈: the same amount, converted by molar mass.

As to `Oc1cc(O)c2ccccc2c1` [1,3-dihydroxy naphthalene], the “CR (cross-reactivity)” value is reported as 6.9% and the IC50 came out at 0.178 µg/mL (≈ 1.11 µM).

As to `Oc1ccc(O)c2ccccc12` [1,4-dihydroxy naphthalene], the “CR (cross-reactivity)” value was determined as 6.2% and the IC50 is 0.2007 µg/mL (≈ 1.25 µM).

Turning to `Oc1cccc2c(O)cccc12` [1,5-dihydroxy naphthalene], the “CR (cross-reactivity)” value was 14.3% and the IC50 stood at 0.0874 µg/mL (≈ 0.546 µM).

Turning to `Oc1ccc2c(O)cccc2c1` [1,6-dihydroxy naphthalene], the “CR (cross-reactivity)” value is 2.5% and the IC50 stood at 0.5028 µg/mL (≈ 3.14 µM).

As for `Oc1ccc2cccc(O)c2c1` [1,7-dihydroxy naphthalen], the “CR (cross-reactivity)” value was 1.4% and the IC50 was 0.8817 µg/mL (≈ 5.5 µM).

Turning to `Oc1cccc2cccc(O)c12` [1,8-dihydroxy naphthalene], the “CR (cross-reactivity)” value is recorded as 0.3% and the IC50 was 4.3034 µg/mL (≈ 26.9 µM).

On to `Oc1ccc2cc(O)ccc2c1` [2,6-dihydroxy naphthalene], for which the “CR (cross-reactivity)” value is given as 0.4% and the IC50 came out at 2.8397 µg/mL (≈ 17.7 µM).

Turning to `CNC(=O)Oc1cccc2ccccc12` [Carbaryl], the “CR (cross-reactivity)” value came to 4.2% and the IC50 amounted to 0.3007 µg/mL (≈ 1.49 µM).

Consider `Oc1cccc2ccccc12` [Hapten 1-naphthol, 1-naphthol], for which the “CR (cross-reactivity)” value is given as 100% and the half-maximal inhibitory concentration (IC50) was 0.0125 µg/mL (≈ 0.0867 µM).

`Oc1ccc2ccccc2c1` [Hapten 2-naphthol, 2-naphthol]: the “CR (cross-reactivity)” value stood at 1.2% and the IC50 was determined as 1.005 µg/mL (≈ 6.97 µM).
